Data on 15 compounds can be found in patent publication US10202391B2, “Chemical compounds” (AstraZeneca AB, priority 2015, dated 2019).

One assay has as its target T1, ERK2 (Homo sapiens, UniProt P28482).
T1 construct: made in house
Put plainly: ERK2 Rapidfire Mass Spectrometry Inhibition of Catalysis Assay. The format is biochemical. The conditions noted are these: 1.2 nM ERK2, 16 μM Erktide, 120 μM ATP (measured Km), 15 minute pre-incubation; read-out: ERK2 Mass Spectrometry Enzyme IC50. The protocol:
(§1) All compounds or DMSO (dimethyl sulphoxide) for the ERK2 Mass Spectrometry and A375 phospho-p90RSK assays were dispensed from source plates containing compounds at 10 mM in 100% (v/v) DMSO or 100% DMSO, directly into assay plates using an Echo 555 Acoustic dispenser (Labcyte Inc™). Depending on the assay, two separate plate preparations were followed. In Workflow A, 10 mM compound stocks were diluted 1:100 using a fixed-tip 96-head Agilent VPrep liquid handler (Agilent Technologies, Santa Clara, Calif.) to give four intermediate dilutions (10 mM, 100 μM, 1 μM, 10 nM). In Workflow B, 10 mM compound stocks were diluted 1:10 using a Tecan Freedom Evo (Tecan Group Ltd., Switzerland), and then 1:100 using the Echo 555 and Labcyte LX to produce three intermediate dilutions across three Labcyte qualified source plates (1 mM, 10 μM, 100 nM). These intermediate dilution plates were then used by the Echo 555 to generate final assay-ready compound plates with a 12 point dose range (10, 3, 1, 0.25, 0.1, 0.03, 0.01, 0.0025, 0.001, 0.0003, 0.0001, 0.0000125 μM) in order to calculate compound IC50s, with a total DMSO concentration in the assay of 1%. For the ERK2 Mass Spectrometry assay Workflow B was used. For the A375 phospho-p90RSK cell assay, the intermediate 1:100 dilution plate described in Workflow A was used by the Echo to dispense compounds and DMSO directly into the cell plates with a 12 point dose range (30, 10, 3.125, 1.25, 0.3, 0.1, 0.03125, 0.0125, 0.003, 0.001, 0.0003125, 0.00003 μM) in order to calculate compound IC50's, with a total DMSO concentration in the assay of 0.3%.
ERK2 Rapidfire Mass Spectrometry Inhibition of Catalysis Assay
MEK U911-activated ERK2 protein was expressed and purified in-house. Enzyme and substrate solutions were made up in assay buffer consisting of 50 mM Tris (pH 7.5), 10 mM MgCl2, 0.1 mM EGTA (ethylene glycol tetraacetic acid), 10 mM DTT (dithiothreitol) and 0.01% (v/v) CHAPS (3-[(3-Cholamidopropyl)dimethylammonio]-1-propanesulfonate). 1.2 nM ERK2 protein was prepared in assay buffer and 10 μl was dispensed into each well of a polypropylene, 384-well plate (#781201, Greiner) containing test and reference control compounds. […] The reaction was allowed to progress for 20 minutes at room temperature before being quenched by the addition of 80 al 1% (v/v) formic acid. The assay plates were then run on the RapidFire Mass Spectrometry platform (Agilent) to measure substrate (unphosphorylated Erktide) and product (phosphorylated Erktide) levels. Data was analysed and IC50's (half maximal inhibitory concentration) were calculated using Genedata Screener® software.

Assay [1] concerns phospho-p90RSK in A375 cell line. The assay can be described thus: A375 Phospho-p90RSK Cellular Assay. The format is cell-based, human. The settings on record: Homo sapiens, A-375; A375 cells, 2 hours incubation. The protocol:
as §1
A375 Phospho-p90RSK Cellular Assay
A375 cells were cultured in cell media composed of DMEM (Dulbecco's modified Eagle's medium), 10% (v/v) Foetal Calf Serum and 1% (v/v) L-Glutamine. After harvesting, cells were dispensed into black, 384-well Costar plates (#3712, Corning) to give 2400 cells per well in a total volume of 40 μl cell media, and were incubated overnight at 37° C., 90% relative humidity and 5% CO2 in a rotating incubator. Test compounds and reference controls were dosed directly into the cell plates using a Labcyte Echo 555 acoustic dispenser. The cell plates were then incubated for 2 hours at 37° C. before being fixed by the addition of 20 μl 12% formaldehyde in PBS/A (4% final concentration), followed by a 20 minute room temperature incubation, and then a 2× wash with 150 μl PBS/A (phosphate buffered saline containing albumin) using a BioTek ELx405 platewasher. Cells were permeabilised with 20 μl 0.1% Triton X-100 in PBS/A for 20 minutes at room temperature, and then washed 1× with 100 μl PBS/A. Primary phospho-p90RSK (Thr359) (D1E9) rabbit monoclonal antibody (#8753, Cell Signaling Technology) was diluted 1:1000 in assay buffer (0.05% (v/v) Tween, 5% (v/v) Foetal Calf Serum, in PBS/A), 20 μl added per well, and plates were incubated at 4° C. overnight. Cell plates were washed 2× with 200 μl PBS/T (phosphate buffered saline containing Tween-20), then 20 μl 1:500 dilution in assay buffer of Alexa Fluor® 647 goat anti-rabbit IgG secondary antibody (#A31573, Molecular Probes, Life Technologies), with a 1:5000 dilution of Hoechst 33342, was added per well. Following a 90 minute incubation at room temperature, plates were washed 2× with 200 μl PBS/T, and 40 μl PBS/A was added per well. Stained cell plates were covered with black lid seals, and then read on a Cellomics ArrayScan™ VTI imaging platform (Thermo Scientific), using an XF53 filter with 10× objective, with a LED light source set-up to analyse nuclear staining with Hoechst 33342 (405 nm) and secondary antibody staining of phospho-p90RSK (647 nm). Data was analysed and IC50's were calculated using Genedata Screener® software.

T1 sequence (P28482 whole entry): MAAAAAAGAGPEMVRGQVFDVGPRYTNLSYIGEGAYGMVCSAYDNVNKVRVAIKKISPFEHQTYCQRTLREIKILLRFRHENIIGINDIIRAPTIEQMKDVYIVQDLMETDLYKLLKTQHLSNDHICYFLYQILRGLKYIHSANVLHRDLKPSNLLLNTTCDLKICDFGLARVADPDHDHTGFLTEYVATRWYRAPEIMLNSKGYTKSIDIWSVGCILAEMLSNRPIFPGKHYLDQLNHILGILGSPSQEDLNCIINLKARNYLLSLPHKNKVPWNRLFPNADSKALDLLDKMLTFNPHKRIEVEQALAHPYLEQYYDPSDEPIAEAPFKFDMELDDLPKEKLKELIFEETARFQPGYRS

For orientation: IC50 means the concentration that inhibits the measured activity by half. As for `COC[C@H]1Cn2cc(-c3nc(Nc4ccnn4C)ncc3C)nc2C(=O)N1Cc1cccc(Cl)c1` [Example 17, (R)-7-(3-Chlorobenzyl)-6-(methoxymethyl)-2-(5-methyl-2-((1-methyl-1H-pyrazol-5-yl)amino)pyrimidin-4-yl)-6,7-dihydroimidazo[1,2-a]pyrazin-8(5H)-one], the results for the IC50 (on ERK2; in assay [1]) were 0.9 nM and 5.2 nM, respectively.

For the compound `Cc1cnc(Nc2ccnn2C)nc1-c1cn2c(n1)C(=O)N(Cc1cccc(OC(F)F)c1)[C@@H](C)C2` [Example 28, (S)-7-(3-(Difluoromethoxy)benzyl)-6-methyl-2-(5-methyl-2-((1-methyl-1H-pyrazol-5-yl)amino)pyrimidin-4-yl)-6,7-dihydroimidazo[1,2-a]pyrazin-8(5H)-one], the IC50 at ERK2 is 0.5 nM; in assay [1] it was 110 nM.

Consider `Cc1cnc(Nc2ccnn2C)nc1-c1cn2c(n1)C(=O)N(Cc1cccc(C(F)F)c1)[C@@H](C)C2` [Example 21, (S)-7-(3-(Difluoromethyl)benzyl)-6-methyl-2-(5-methyl-2-((1-methyl-1H-pyrazol-5-yl)amino)pyrimidin-4-yl)-6,7-dihydroimidazo[1,2-a]pyrazin-8(5H)-one], for which the results for the IC50 (on ERK2; in assay [1]) were 0.6 nM and 11 nM, respectively.

For `Cc1cnc(Nc2ccnn2C)nc1-c1cn2c(n1)C(=O)N(Cc1cc(C(F)(F)F)ncn1)[C@@H](C)C2` [Example 32, (S)-6-Methyl-2-(5-methyl-2-((1-methyl-1H-pyrazol-5-yl)amino)pyrimidin-4-yl)-7-((6-(trifluoromethyl)pyrimidin-4-yl)methyl)-6,7-dihydroimidazo[1,2-a]pyrazin-8(5H)-one], the IC50 turned out to be 0.9 nM on ERK2 and 99 nM in assay [1].

As for `Cc1cccc(CN2CCn3cc(-c4ccnc(Nc5ccnn5C)n4)nc3C2=O)n1` [Example 1, 2-(2-((1-Methyl-1H-pyrazol-5-yl)amino)pyrimidin-4-yl)-7-((6-methylpyridin-2-yl)methyl)-6,7-dihydroimidazo[1,2-a]pyrazin-8(5H)-one], the IC50 at ERK2 turned out to be 17.4 nM; in assay [1] it was 17000 nM.

Regarding `Cc1cnc(Nc2ccnn2C)nc1-c1cn2c(n1)C(=O)N(Cc1cccc(C(F)(F)F)n1)[C@@H](C)C2` [Example 27, (S)-6-Methyl-2-(5-methyl-2-((1-methyl-1H-pyrazol-5-yl)amino)pyrimidin-4-yl)-7-((6-(trifluoromethyl)pyridin-2-yl)methyl)-6,7-dihydroimidazo[1,2-a]pyrazin-8(5H)-one], the half-inhibitory concentration (IC50) on ERK2 amounted to 0.8 nM; in assay [1], 77 nM.

Turning to `Cc1cnc(Nc2ccnn2C)nc1-c1cn2c(n1)C(=O)N(Cc1cccc(C(F)F)c1)CC2` [Example 14, 7-(3-(Difluoromethyl)benzyl)-2-(5-methyl-2-((1-methyl-1H-pyrazol-5-yl)amino)pyrimidin-4-yl)-6,7-dihydroimidazo[1,2-a]pyrazin-8(5H)-one], the results for the IC50 (on ERK2; in assay [1]) were 0.3 nM and 24 nM, respectively.

As to `Cc1cnc(Nc2ccnn2C)nc1-c1cn2c(n1)C(=O)N(Cc1cccc(C(F)(F)F)n1)CC2` [Example 5, 2-(5-Methyl-2-((1-methyl-1H-pyrazol-5-yl)amino)pyrimidin-4-yl)-7-((6-(trifluoromethyl)pyridin-2-yl)methyl)-6,7-dihydroimidazo[1,2-a]pyrazin-8(5H)-one], the values for the IC50 (on ERK2; in assay [1]) were 2 nM and 110 nM, respectively.

In the case of `Cc1cnc(Nc2ccnn2C)nc1-c1cn2c(n1)C(=O)N(Cc1cc(C(F)F)ccn1)[C@@H](C)C2` [Example 31, (S)-7-((4-(Difluoromethyl)pyridin-2-yl)methyl)-6-methyl-2-(5-methyl-2-((1-methyl-1H-pyrazol-5-yl)amino)pyrimidin-4-yl)-6,7-dihydroimidazo[1,2-a]pyrazin-8(5H)-one], the IC50 on ERK2 was 0.8 nM; in assay [1] it was 140 nM.

In the case of `Cc1cnc(Nc2ccnn2C)nc1-c1cn2c(n1)C(=O)N(Cc1cccc(Cl)c1)[C@@H](C)C2` [Example 19, (S)-7-(3-Chlorobenzyl)-6-methyl-2-(5-methyl-2-((1-methyl-1H-pyrazol-5-yl)amino)pyrimidin-4-yl)-6,7-dihydroimidazo[1,2-a]pyrazin-8(5H)-one], the half-maximal inhibitory concentration (IC50) worked out at 0.5 nM on ERK2 and 5.3 nM in assay [1].

Take `Cc1cccc(CN2C(=O)c3nc(-c4nc(Nc5ccnn5C)ncc4Cl)cn3C[C@@H]2C)n1` [Example 11, (S)-2-(5-chloro-2-((1-methyl-1H-pyrazol-5-yl)amino)pyrimidin-4-yl)-6-methyl-7-((6-methylpyridin-2-yl)methyl)-6,7-dihydroimidazo[1,2-a]pyrazin-8(5H)-one]: the IC50 was 0.8 nM at ERK2 and 150 nM in assay [1].

As to `COC[C@H]1Cn2cc(-c3nc(Nc4ccnn4C)ncc3C)nc2C(=O)N1Cc1cccc(C(F)F)n1` [Example 16, (R)-7-((6-(Difluoromethyl)pyridin-2-yl)methyl)-6-(methoxymethyl)-2-(5-methyl-2-((1-methyl-1H-pyrazol-5-yl)amino)pyrimidin-4-yl)-6,7-dihydroimidazo[1,2-a]pyrazin-8(5H)-one], the IC50 was 1.1 nM at ERK2 and 120 nM in assay [1].

`Cc1cnc(Nc2ccnn2C)nc1-c1cn2c(n1)C(=O)N(Cc1ccnc(C(F)(F)F)n1)[C@@H](C)C2` [Example 26, (S)-6-methyl-2-(5-methyl-2-((1-methyl-1H-pyrazol-5-yl)amino)pyrimidin-4-yl)-7-((2-(trifluoromethyl)pyrimidin-4-yl)methyl)-6,7-dihydroimidazo[1,2-a]pyrazin-8(5H)-one]: the figures for the IC50 (at ERK2; in assay [1]) were 1.1 nM and 200 nM, respectively.

Regarding `Cc1cnc(Nc2ccnn2C)nc1-c1cn2c(n1)C(=O)N(Cc1cccc(C(F)F)n1)CC2` [Example 15, 7-((6-(Difluoromethyl)pyridin-2-yl)methyl)-2-(5-methyl-2-((1-methyl-1H-pyrazol-5-yl)amino)pyrimidin-4-yl)-6,7-dihydroimidazo[1,2-a]pyrazin-8(5H)-one], the IC50 was found to be 0.6 nM on ERK2 and 150 nM in assay [1].

As to `C[C@H]1Cn2cc(-c3ccnc(Nc4ccnn4C)n3)nc2C(=O)N1Cc1ccc(F)c(Cl)c1` [Example 3, (S)-7-(3-Chloro-4-fluorobenzyl)-6-methyl-2-(2-((1-methyl-1H-pyrazol-5-yl)amino)pyrimidin-4-yl)-6,7-dihydroimidazo[1,2-a]pyrazin-8(5H)-one], the results for the IC50 (at ERK2; in assay [1]) were 0.5 nM and 81 nM, respectively.
